Reference: the supplement of paper PMC10307832

How the values were obtained:
Assay in all cases: relative viability (nuclei count vs DMSO), 5 days (fraction); higher = more cells survive
[1] = compound: Cc1ccccc1C(C(=O)NC1CCCCC1)N(C(=O)Cn1ccnc1C)c1cccc(F)c1 [IDH-C35] + CC(=O)Nc1cccc(-n2c(=O)n(C3CC3)c(=O)c3c(Nc4ccc(I)cc4F)n(C)c(=O)c(C)c32)c1 [Trametinib] (partner 0.02 µM)
Summary of the method: (§1)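 For relative viability, nuclei counts in treated wells were divided by those in vehicle wells. Lung cancer cell lines had been pin-tool dosed in 1536-well plates the day after seeding and cultured for 5 days, then fixed and stained in one step (final 0.05% Triton X-100, 1% formaldehyde, 1 ug/ml Hoechst) and imaged at 4×. Doses were one drug alone or a fixed anchor-drug dose plus five library-drug doses (not always all listed) in √10 steps, and values are duplicate-plate medians.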

[2] = compound: CC1=C(C(=NN1)C)CC2=C(C3=C(S2)N(C(=O)N(C3=O)C)CC(C)C)C(=O)N4C[C@@H](CO4)O + O=C(c1cc(Cc2n[nH]c(=O)c3ccccc23)ccc1F)N1CCN(C(=O)C2CC2)CC1 [Olaparib] (partner 8 µM)
Summary of the method: as §1

[3] = compound: Cc1ccccc1C(C(=O)NC1CCCCC1)N(C(=O)Cn1ccnc1C)c1cccc(F)c1 [IDH-C35] + COc1cccc2cc(-c3nc([C@H]4CC[C@H](C(=O)O)CC4)n4ncnc(N)c34)[nH]c12 [OSI-027] (partner 0.5 µM)
Summary of the method: as §1

[4] = compound: Cc1ccccc1C(C(=O)NC1CCCCC1)N(C(=O)Cn1ccnc1C)c1cccc(F)c1 [IDH-C35] + C[C@@H](Oc1cc(-c2cnn(C3CCNCC3)c2)cnc1N)c1c(Cl)ccc(F)c1Cl [Crizotinib] (partner 1 µM)
Summary of the method: as §1

Row | Cell Line | relative viability ([1]; first compound 0.08 µM) | relative viability ([1]; first compound 0.253 µM) | relative viability ([1]; first compound 0.8 µM) | relative viability ([1]; first compound 2.53 µM) | relative viability ([1]; first compound 8 µM) | relative viability ([2]; first compound 0.0025 µM) | relative viability ([2]; first compound 0.007906 µM) | relative viability ([2]; first compound 0.025 µM) | relative viability ([2]; first compound 0.07906 µM) | relative viability ([2]; first compound 0.25 µM) | relative viability ([3]; first compound 0.08 µM) | relative viability ([3]; first compound 0.253 µM) | relative viability ([3]; first compound 0.8 µM) | relative viability ([3]; first compound 2.53 µM) | relative viability ([3]; first compound 8 µM) | relative viability ([4]; first compound 0.08 µM) | relative viability ([4]; first compound 0.253 µM) | relative viability ([4]; first compound 0.8 µM) | relative viability ([4]; first compound 2.53 µM) | relative viability ([4]; first compound 8 µM)
1 | NCI-H2342 | 0.771 | 0.762 | 0.769 | 0.767 | 0.736 | 0.463 | 0.473 | 0.374 | 0.425 | 0.403 | 0.564 | 0.629 | 0.564 | 0.616 | 0.587 |  |  |  |  | 
2 | SK-MES-1 | 0.513 | 0.6 | 0.581 | 0.567 | 0.45 | 0.702 | 0.756 | 0.691 | 0.82 | 0.774 | 0.634 | 0.598 | 0.604 | 0.597 | 0.508 | 1.05 | 0.953 | 0.912 | 0.937 | 0.986
3 | HCC-366 | 0.293 | 0.376 | 0.407 | 0.303 | 0.31 | 0.379 | 0.473 | 0.357 | 0.294 | 0.371 | 0.968 | 0.955 | 0.806 |  | 0.785 | 0.546 | 0.51 | 0.564 | 0.546 | 0.42
4 | 201T | 0.727 | 0.7 | 0.718 | 0.701 | 0.676 | 0.852 | 0.815 | 0.828 | 0.845 | 0.853 | 0.845 | 0.75 | 0.681 | 0.802 | 0.777 | 1.03 | 1.02 | 0.982 | 0.999 | 0.997
5 | HCC-827 | 0.525 | 0.583 | 0.462 | 0.519 | 0.512 | 0.641 | 0.629 | 0.58 | 0.612 | 0.612 | 0.78 | 0.662 | 0.694 | 0.71 | 0.771 | 0.911 | 0.956 | 0.911 | 0.876 | 0.957
6 | NCI-H647 | 0.488 | 0.378 | 0.444 | 0.473 | 0.47 | 0.626 | 0.415 | 0.481 | 0.647 | 0.685 | 0.683 | 0.676 | 0.573 | 0.569 | 0.665 | 0.876 | 1.02 | 1.05 | 1.07 | 0.98
7 | NCI-H2023 | 0.476 | 0.503 | 0.548 | 0.528 | 0.475 | 0.47 | 0.496 | 0.449 | 0.435 | 0.51 | 0.418 | 0.417 | 0.426 | 0.411 | 0.307 | 0.668 | 0.627 | 0.637 | 0.636 | 0.592
8 | NCI-H520 | 0.645 | 0.669 | 0.818 | 0.665 | 0.721 | 0.286 | 0.296 | 0.26 | 0.253 | 0.272 | 0.257 | 0.243 | 0.268 | 0.276 | 0.265 | 0.785 | 0.812 | 0.757 | 0.775 | 0.796
9 | RERF-LC-KJ | 0.846 | 0.831 | 0.868 | 0.904 | 0.779 | 0.958 | 0.832 | 1.04 | 0.926 | 0.883 | 0.562 | 0.631 | 0.643 | 0.614 | 0.597 | 0.887 | 0.822 | 0.794 | 0.904 | 0.763
10 | A-427 | 0.791 | 0.784 | 0.77 | 0.722 | 0.705 | 0.762 | 0.769 | 0.706 | 0.729 | 0.886 | 0.477 | 0.49 | 0.463 | 0.471 | 0.448 | 0.907 | 0.983 | 0.849 | 0.891 | 0.791
11 | NCI-H441 | 0.435 | 0.415 | 0.5 | 0.542 | 0.484 | 0.648 | 0.529 | 0.521 | 0.478 | 0.593 | 0.617 | 0.647 | 0.538 | 0.675 | 0.579 | 0.964 | 0.673 | 0.649 | 0.703 | 0.749
12 | NCI-H1703 |  |  |  |  |  | 0.467 | 0.348 | 0.422 | 0.41 | 0.447 |  |  |  |  |  | 0.582 | 0.875 | 1.09 | 0.636 | 0.823
13 | NCI-H1792 | 0.393 | 0.338 | 0.485 | 0.405 | 0.544 | 0.542 | 0.384 | 0.356 | 0.383 | 0.246 | 0.725 | 0.718 | 0.705 | 0.742 | 0.75 | 0.972 | 0.949 | 0.94 | 1.01 | 0.971
14 | Calu-6 |  |  |  |  |  | 0.532 | 0.501 | 0.557 | 0.59 | 0.603 |  |  |  |  |  | 0.765 | 0.745 | 0.804 | 0.833 | 0.742
15 | SK-LU-1 | 0.454 | 0.489 | 0.507 | 0.485 | 0.536 | 0.439 | 0.366 | 0.266 | 0.332 | 0.377 | 0.377 | 0.336 | 0.347 | 0.357 | 0.326 | 0.881 | 0.797 | 0.948 | 0.904 | 0.881
16 | PC-3 [JPC-3] | 0.65 | 0.745 | 0.725 | 0.758 | 0.67 | 1.19 | 0.794 | 1.14 | 1.07 | 1.3 | 0.767 | 0.74 | 0.747 | 0.809 | 0.747 | 1.01 | 0.919 | 0.929 | 1.03 | 0.965
17 | EMC-BAC-2 | 0.888 | 0.816 | 0.837 | 0.823 | 0.833 | 0.546 | 0.464 | 0.474 | 0.489 | 0.527 | 0.364 | 0.366 | 0.383 | 0.39 | 0.385 | 0.809 | 0.731 | 0.744 | 0.713 | 0.743
